Data on 30 compounds can be found in ChEMBL document CHEMBL1914304 (J Med Chem, 2011).

The subject of data set [1] is BJ. Nature of the data set: Cytotoxicity against human BJ cells after 72 hrs by luminescence assay. It is filed as cell-based.
Data set [2] has as its system HEK293. The experiment in a line: Cytotoxicity against human HEK293 cells after 72 hrs by luminescence assay. It is filed as cell-based. As to conditions: hek293, 72 h.
Data set [3] is described as follows: Selectivity ratio of EC50 for human HepG2 cells to EC50 for Plasmodium falciparum.
The subject of data set [4] is Raji. The experiment in a line: Cytotoxicity against human Raji cells after 72 hrs by luminescence assay. The class given is cell-based.
Data set [5] deals with HepG2. Nature of the data set: Cytotoxicity against human HepG2 cells after 72 hrs by luminescence assay. As to conditions: hepg2, 72 h. The class given is cell-based.

SMILES strings stand for the structures.

Consider `Cc1ccccc1N1CCN(CC(O)COc2ccccc2C(=O)CCc2ccc(F)cc2)CC1.Cl` (racemic), for which the Activity result in data set [1], in data set [2], in data set [4] and in data set [5] was “Non-toxic” in each case. Besides, in data set [3], the selectivity ratio was > 10.

For `Cc1cccc(N2CCN(CC(O)COc3ccccc3C(=O)CCc3ccc(F)cc3)CC2)c1.Cl` (racemic), the Activity entry in data set [1], in data set [2], in data set [4] and in data set [5] was “Non-toxic” throughout. Besides, the selectivity ratio in data set [3] was > 10.

On to `Cc1ccc(N2CCN(CC(O)COc3ccccc3C(=O)CCc3ccc(F)cc3)CC2)cc1.Cl` (racemic), for which the Activity entry in data set [1], in data set [2], in data set [4] and in data set [5] was “Non-toxic” each time. Besides, the selectivity ratio in data set [3] was > 10.

As for `COc1ccccc1N1CCN(CC(O)COc2ccccc2C(=O)CCc2ccc(F)cc2)CC1.Cl` (racemic), the Activity entry in data set [1], in data set [2], in data set [4] and in data set [5] was “Non-toxic” each time. In addition, the selectivity ratio in data set [3] was > 10.

As to `COc1cccc(N2CCN(CC(O)COc3ccccc3C(=O)CCc3ccc(F)cc3)CC2)c1.Cl` (racemic), the Activity entry in data set [1], in data set [2], in data set [4] and in data set [5] was “Non-toxic” throughout. In addition, the selectivity ratio in data set [3] is > 10.

Regarding `COc1ccc(N2CCN(CC(O)COc3ccccc3C(=O)CCc3ccc(F)cc3)CC2)cc1.Cl` (racemic), the Activity entry in data set [1], in data set [2], in data set [4] and in data set [5] was “Non-toxic” in each case. Besides, in data set [3], the selectivity ratio was > 10.

On to `Cl.O=C(CCc1ccc(F)cc1)c1ccccc1OCC(O)CN1CCN(c2ccccc2Cl)CC1` (racemic), for which the Activity result in data set [1], in data set [2], in data set [4] and in data set [5] was “Non-toxic” in each case. Besides, in data set [3], the selectivity ratio was > 10.

As for `Cl.O=C(CCc1ccc(F)cc1)c1ccccc1OCC(O)CN1CCN(c2ccc(Cl)cc2)CC1` (racemic), the Activity result in data set [1], in data set [2], in data set [4] and in data set [5] was “Non-toxic” each time. Further, the selectivity ratio in data set [3] was > 10.

As for `Cl.O=C(CCc1ccc(F)cc1)c1ccccc1OCC(O)CN1CCN(c2ccc(Cl)c(Cl)c2)CC1` (racemic), the Activity entry in data set [1], in data set [2], in data set [4] and in data set [5] was “Non-toxic” throughout. For the same compound, the selectivity ratio in data set [3] is > 10.

Consider `Cl.O=C(CCc1ccc(F)cc1)c1ccccc1OCC(O)CN1CCN(c2ccccc2F)CC1` (racemic), for which the Activity result in data set [1], in data set [2], in data set [4] and in data set [5] was “Non-toxic” in each case. The selectivity ratio in data set [3] was > 10.

Consider `Cl.O=C(CCc1ccc(F)cc1)c1ccccc1OCC(O)CN1CCN(c2ccc(F)cc2)CC1` (racemic), for which the Activity entry in data set [1], in data set [2], in data set [4] and in data set [5] was “Non-toxic” in each case. In addition, in data set [3], the selectivity ratio is > 10.

Consider `Cl.O=C(CCc1ccc(F)cc1)c1ccccc1OCC(O)CN1CCN(c2ccc([N+](=O)[O-])cc2)CC1` (racemic), for which the Activity entry in data set [1], in data set [2], in data set [4] and in data set [5] was “Non-toxic” throughout. For the same compound, the selectivity ratio in data set [3] is > 10.

With `Cl.Nc1ccc(N2CCN(CC(O)COc3ccccc3C(=O)CCc3ccc(F)cc3)CC2)cc1` (racemic), the Activity result in data set [1], in data set [2], in data set [4] and in data set [5] was “Non-toxic” throughout. In data set [3], the selectivity ratio is > 10.

With `Cl.O=C(CCc1ccc(F)cc1)c1ccccc1OCC(O)CN1CCN(c2ccc(O)cc2)CC1` (racemic), the Activity result in data set [1], in data set [2], in data set [4] and in data set [5] was “Non-toxic” in each case. The selectivity ratio in data set [3] was > 10.

For `Cl.O=C(CCc1ccc(F)cc1)c1ccccc1OCC(O)CN1CCN(c2ccc(C(F)(F)F)cc2)CC1` (racemic), the Activity result in data set [1], in data set [2], in data set [4] and in data set [5] was “Non-toxic” each time. Moreover, in data set [3], the selectivity ratio is > 10.

As for `Cl.O=C(CCc1ccc(F)cc1)c1ccccc1OCC(O)CN1CCN(C(=O)c2ccccc2)CC1` (racemic), the Activity result in data set [1], in data set [2], in data set [4] and in data set [5] was “Non-toxic” throughout. Also, the selectivity ratio in data set [3] was > 10.

In the case of `CN1CCN(CC(O)COc2ccccc2C(=O)CCc2ccc(F)cc2)CC1.Cl` (racemic), the Activity result in data set [1], in data set [2], in data set [4] and in data set [5] was “Non-toxic” in each case. Also, the selectivity ratio in data set [3] is > 10.

Take `CCN1CCN(CC(O)COc2ccccc2C(=O)CCc2ccc(F)cc2)CC1.Cl` (racemic): the Activity result in data set [1], in data set [2], in data set [4] and in data set [5] was “Non-toxic” each time. In addition, in data set [3], the selectivity ratio is > 10.

For `Cl.O=C(CCc1ccc(F)cc1)c1ccccc1OCC(O)CN1CCOCC1` (racemic), the Activity result in data set [1], in data set [2], in data set [4] and in data set [5] was “Non-toxic” in each case. The selectivity ratio in data set [3] was > 10.

With `Cl.O=C(CCc1ccccc1)c1cc(F)ccc1OCC(O)CN1CCC(Cc2ccccc2)CC1` (racemic), the Activity result in data set [1], in data set [2], in data set [4] and in data set [5] was “Non-toxic” throughout. Also, the selectivity ratio in data set [3] was > 10.

As to `Cl.O=C(CCc1ccccc1)c1cc(F)ccc1OCC(O)CN1CCC(O)(Cc2ccccc2)CC1` (racemic), the Activity entry in data set [1], in data set [2], in data set [4] and in data set [5] was “Non-toxic” each time. Further, the selectivity ratio in data set [3] was > 10.

In the case of `Cl.O=C(CCc1ccccc1)c1cc(F)ccc1OCC(O)CN1CCNCC1` (racemic), the Activity result in data set [1], in data set [2], in data set [4] and in data set [5] was “Non-toxic” in each case. Further, the selectivity ratio in data set [3] is > 10.

As for `Cl.O=C(CCc1ccccc1)c1cc(F)ccc1OCC(O)CN1CCC(c2ccccc2)CC1` (racemic), the Activity entry in data set [1], in data set [2], in data set [4] and in data set [5] was “Non-toxic” each time. In data set [3], the selectivity ratio was > 10.

For the compound `Cl.O=C(CCc1ccccc1)c1cc(F)ccc1OCC(O)CN1CCN(c2ccc(Cl)cc2)CC1` (racemic), the Activity entry in data set [1], in data set [2], in data set [4] and in data set [5] was “Non-toxic” each time. Moreover, in data set [3], the selectivity ratio is > 10.

In the case of `Cl.O=C(CCc1ccccc1)c1cc(F)ccc1OCC(O)CN1CCN(c2ccccc2)CC1` (racemic), the Activity entry in data set [1], in data set [2], in data set [4] and in data set [5] was “Non-toxic” each time. Besides, in data set [3], the selectivity ratio was > 10.

Consider `Cl.O=C(CCc1ccccc1)c1cc(F)ccc1OCC(O)CN1CCN(Cc2ccccc2)CC1` (racemic), for which the Activity entry in data set [1], in data set [2], in data set [4] and in data set [5] was “Non-toxic” throughout. Also, the selectivity ratio in data set [3] is > 10.

With `Cc1ccccc1N1CCN(CC(O)COc2ccc(F)cc2C(=O)CCc2ccccc2)CC1.Cl` (racemic), the Activity entry in data set [1], in data set [2], in data set [4] and in data set [5] was “Non-toxic” each time. The selectivity ratio in data set [3] was > 10.

For the compound `Cc1cccc(N2CCN(CC(O)COc3ccc(F)cc3C(=O)CCc3ccccc3)CC2)c1.Cl` (racemic), the Activity result in data set [1], in data set [2], in data set [4] and in data set [5] was “Non-toxic” each time. For the same compound, the selectivity ratio in data set [3] was > 10.

As to `Cc1ccc(N2CCN(CC(O)COc3ccc(F)cc3C(=O)CCc3ccccc3)CC2)cc1.Cl` (racemic), the Activity result in data set [1], in data set [2], in data set [4] and in data set [5] was “Non-toxic” throughout. In addition, the selectivity ratio in data set [3] was > 10.

Take `COc1ccccc1N1CCN(CC(O)COc2ccc(F)cc2C(=O)CCc2ccccc2)CC1.Cl` (racemic): the Activity entry in data set [1], in data set [2], in data set [4] and in data set [5] was “Non-toxic” each time. In data set [3], the selectivity ratio is > 10.
